Residue numbers refer to the chain shown, from its start. Like-named read-outs stand apart in the source and are kept apart here. Where a SMILES comes first, the peptide text is derived from it.
Tests used:
ERG = target: T1, ERG (Homo sapiens, UniProt P11308)
T1 sequence (P11308 1-479): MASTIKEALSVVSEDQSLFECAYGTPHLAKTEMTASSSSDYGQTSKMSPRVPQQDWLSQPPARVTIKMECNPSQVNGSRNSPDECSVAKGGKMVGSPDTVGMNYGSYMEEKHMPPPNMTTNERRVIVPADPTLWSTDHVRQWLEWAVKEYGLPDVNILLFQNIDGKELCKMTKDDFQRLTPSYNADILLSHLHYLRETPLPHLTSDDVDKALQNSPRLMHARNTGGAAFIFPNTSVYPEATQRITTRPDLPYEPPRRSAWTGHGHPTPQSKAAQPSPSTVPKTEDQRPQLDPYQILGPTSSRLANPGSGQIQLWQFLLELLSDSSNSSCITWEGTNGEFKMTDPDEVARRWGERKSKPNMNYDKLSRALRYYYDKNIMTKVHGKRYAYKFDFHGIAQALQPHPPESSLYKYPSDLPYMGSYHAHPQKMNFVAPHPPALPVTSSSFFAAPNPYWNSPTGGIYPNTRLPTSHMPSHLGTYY

DU145 = assay: Cell invasion with TAT-peptides, DU145; format: cell-based; conditions: FIG. 39
Text: (§1) Invaded cells were stained with crystal violet and photographed.

AR binding to ETS domain = target: T2, AR binding to ETS domain (Homo sapiens, UniProt P11308)
T2 sequence (P11308 311-391 limits assumed): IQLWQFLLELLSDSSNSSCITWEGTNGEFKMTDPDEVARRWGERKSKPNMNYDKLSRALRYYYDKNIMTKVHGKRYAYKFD
Procedure: Beads were eluted by SDS loading buffer and blotted with anti-GST mAb specifically against GST-AR (FIG. 30).
The cDNAs and fragments are cloned into pFN19A vector per manufacturer's protocol. In vitro translated proteins are generated by a wheat germ expression system (Promega) and immobilized onto HaloLink magnetic beads. After washing, the conjugated beads are incubated with GST-AR fusion proteins in the presence or absence of peptides. The bound proteins are analyzed by SDS-PAGE and blotted with anti-GST mAb (Sigma).

VCaP [1] = assay: DNA damage in VCaP with TAT peptides; format: cell-based; conditions: FIG. 42
VCaP [2] = assay: Cell proliferation with TAT-peptide, VCaP; format: cell-based; conditions: FIG. 40
Text: Standard cell proliferation and apoptosis assays (Chinnaiyan et al., Cell, 1995. 81(4): p. 505-12; Chinnaiyan et al., Proc Natl Acad Sci USA, 2000. 97(4): p. 1754-9; Varambally et al., Nature, 2002. 419(6907): p. 624-9) are used to assess the inhibitory role of peptides in prostate cell proliferation driven by TMPRSS2:ETS fusions, using both the over-expression series and stable-knockdown series.

VCaP [3] = system: VCaP
Procedure: (§2) Briefly, equal numbers of the indicated cells were seeded onto the basement membrane matrix (EC matrix, Chemicon) present in the insert of a 24-well culture plate, with fetal bovine serum added to the lower chamber as a chemoattractant. After 48 h, non-invading cells and the EC matrix were removed by a cotton swab. Invaded cells were stained with crystal violet and photographed. The inserts were treated with 10% acetic acid and absorbance was measured at 560 nm.

VCaP [4] = assay: Cell invasion with TAT-peptides, VCaP; conditions: FIG. 39
Procedure: as §2

[5] = system: TMPRSS2-ERG fusion transcript in LNCaP cells; conditions: DHT 10 nM, 12 hours
Procedure: It was investigated whether stimulation with androgen (e.g. DHT) could create gene fusions by coupling androgen stimulation with an agent that causes DNA double strand breaks. LNCaP cells were hormone depleted, followed by stimulation with DHT (10 nM, 12 hours), irradiation (1 or 3 Gy) and clonal expansion of single cells in 96 well plates using flow sorting. The presence of the TMPRSS2-ERG fusion transcript was determined using quantitative reverse-transcription PCR (QRT-PCR) with both SYBR green and TaqMan assays spanning the chimeric region.

[6] = system: TMPRSS2 and ERG loci in DU145 cells
[7] = system: TMPRSS2 and ERG loci in LNCaP cells
[8] = system: TMPRSS2-ERG and wild-type ERG transcripts; format: cell-based
Procedure: All PCR experiments were performed in triplicates.

[9] = system: RWPE-1 cells transduced with ERG adenovirus; assay: ERG-mediated invasion of RWPE-1 cells transduced with ERG adenovirus; format: cell-based; conditions: TAT-tagged peptides, 2 μM, 48 hours, RWPE-1 with ERG adenovirus
Procedure: as §1
To investigate the ability of ERG-binding peptides to block ERG-mediated invasion, the prostate cell lines RWPE-1 transduced with ERG or LACZ adenovirus were incubated with TAT-tagged peptides. […] The relative number of invaded cells was also quantified by colorimetric assays.

[10] = target: T3, ETS domain stretch RALRYYYDK (Arg367 to Lys375 in ERG), R367→K (Homo sapiens, UniProt P11308, R367K); format: binding
T3 construct: used a series of overlapping 19 amino acids segments of ETS domain; made in house
T3 sequence (P11308 311-391 R367K): T2 sequence (P11308 311-391 limits assumed) with R57K
Text: Interactive phage clones were sequenced and analyzed using bioinformatics approaches to identify consensus peptide sequence. […] The domains within ERG that mediate the binding of isolated phage clones were mapped using a panel of ERG deletion mutants expressed as HaloTag fusion protein. A total of 6 domains, namely N-term, ETS, CAE, PNT, CD, and CTD (Carrere et al., Oncogene, 1998. 16(25): p. 3261-8), were cloned and expressed in TNT SP6 wheat germ system. Without purification, the expression reactions were coated on HaloLink Array system and incubated with individual phage clones. The interaction signal was detected by Cy3-labled anti-M13 antibody, which is specifically directed against the phage capsid protein (FIG. 28). […] Further mapping studies used a series of overlapping 19 amino acids segments of ETS domain specifically localized the binding site to a 9 amino-acids conserved stretch […] (SEQ ID NO. 1) corresponding to the residues Arg^367 to Lys^375 in ERG (FIG. 29). The conserved region of the amino acids specifically involved in peptide binding was then located.

**Q.** Which results are given for “TAT-LSFGSLP: TAT linked to LSFGSLP (SEQ ID NO: 2) (not fully specified; left off: small tags and cut ends)”?
**A.** ERG transcription activities (ERG): blocked; DU145 invasion (DU145): not; ERG interactome (through ETS domain) (AR binding to ETS domain): blocked; DNA damage in VCaP (VCaP [1]): inhibit; VCaP proliferation (VCaP [2]): inhibits; cell invasion driven by ERG (VCaP [3]): attenuated; VCaP invasion (VCaP [4]): inhibit

**Q.** What does the source list for C[C@]12CCC(=O)C[C@@H]1CC[C@@H]1[C@@H]2CC[C@]2(C)[C@@H](O)CC[C@@H]12 [DHT, Dihydrotestosterone]?
**A.** clones harboring TMPRSS2-ERG fusion transcripts ([5]; then 1 Gy irradiation): 2.3%; clones harboring TMPRSS2-ERG fusion transcripts ([5]; then 3 Gy irradiation): 25%; proximity between TMPRSS2 and ERG [6]: not observed; proximity between the TMPRSS2 and ERG loci [7]: induced proximity

**Q.** Which results are given for “TAT-LPPYLFT: TAT linked to LPPYLFT (SEQ ID NO: 45) (not fully specified; left off: small tags and cut ends)”?
**A.** ERG transcription activities (ERG): blocked; DU145 invasion (DU145): not; ERG interactome (through ETS domain) (AR binding to ETS domain): blocked; VCaP proliferation (VCaP [2]): inhibited; cell invasion driven by ERG (VCaP [3]): attenuated; VCaP invasion (VCaP [4]): inhibit

**Q.** “UGG UCA GAG AGA AGC AAU A [wild-type ERG siRNA]” was tested. Which TMPRSS2-ERG expression [8] did it give?
**A.** The TMPRSS2-ERG expression was “did not affect”.

**Q.** Which ERG-driven invasion [9] does the source give for LPPYLFT here?
**A.** The ERG-driven invasion was “blocked”.

**Q.** For CC(C)C[C@H](NC(=O)[C@H](CO)NC(=O)CNC(=O)[C@H](Cc1ccccc1)NC(=O)[C@H](CO)NC(=O)[C@@H](N)CC(C)C)C(=O)N1CCC[C@H]1C(=O)O [LSFGSLP] (H-LSFGSLP-OH), which “phage peptide binding after single amino acid substitution R367→K” value [10] is on record?
**A.** Its value is “completely abolished”.
